According to article PMC3891837 (American journal of obstetrics and gynecology, 2013):
Like-named read-outs stand apart in the source and are kept apart here.

Legend:
[1] = test system: efflux transporters (P-gp, MRP, BCRP); type: biochemical; details: human, inside-out vesicles from placental brush border membranes, pH 7.4, probe [3H]-estrone sulfate, 100 nM
[2] = set-up: species or system human
[3] = test system: efflux transporters (P-gp, MRP, BCRP); type: biochemical; details: human, inside-out vesicles from placental brush border membranes, pH 7.4, probe [3H]-paclitaxel, 40 nM
[4] = set-up: species or system human; remark: listed apart in the source

| IC50 at 3 min [1] [µM] | normalized transfer (Clearance index) to antipyrine ([2]; Maternal-to-Fetal direction) | concentration in the fetal circuit at the end of the experimental period ([2]; M→F, 4-hour perfusion, initial donor concentration 50 ng/mL) [ng/mL] | drug remained in the maternal circuit ([2]; M→F, end of 4-hour perfusion) [%] | drug retained by the tissue ([2]; M→F, end of 4-hour perfusion) [%] | drug transferred to the fetal circuit ([2]; M→F, end of 4-hour perfusion) [%] | fetal/maternal concentration ratio ([2]; M→F, end of 4-hour perfusion) | appearance in the fetal circuit after start of perfusion ([2]; M→F, initial donor concentration 50 ng/mL) | IC50 at 1 min [3] [µM] | normalized transfer (Clearance index) to antipyrine ([4]; Fetal-to-Maternal direction, p < 0.01 vs Maternal to Fetal) | concentration in the maternal circuit at the end of perfusion ([4]; F→M, 4 hours of perfusion, initial donor concentration 50 ng/mL) [ng/mL] | maternal/fetal concentration ratio ([4]; F→M, end of 4 hours of perfusion) | time to appearance in the maternal (recipient) circuit ([4]; F→M, initial donor concentration 50 ng/mL) | SMILES | transplacental transfer of antipyrine ([2]; marker compound, 20 μg/mL, dual perfusion, 4 h) |
| --- | --- | --- | --- | --- | --- | --- | --- | --- | --- | --- | --- | --- | --- | --- |
| 30 | 0.36 ± 0.07 | 8.8 ± 1.8 | 68 ± 5 | 14 ± 5 | 18 ± 4 | 0.26 ± 0.06 | within the initial five minutes | 11 | 0.48 ± 0.07 | 6.4 ± 1.0 | 0.19 ± 0.03 | less than 5 minutes | CC[C@H](C)C(=O)O[C@H]1C[C@H](O)C=C2C=C[C@H](C)[C@H](CC[C@@H](O)C[C@@H](O)CC(=O)O)[C@H]21 [Pravastatin, pravastatin] | – |
| – | – | – | – | – | – | – | – | – | – | – | – | – | Cc1cc(=O)n(-c2ccccc2)n1C [antipyrine] | approximately 50% |
